{"source": "patent US12529032B2", "about": "“Methods and culture substrates for controlled induction of biomimetic neural tissues comprising singular rosette structures” (priority 2017, dated 2026)", "key": {"[1]": {"system": "spinal neuroepithelial tissues", "test": "Singular neural rosette emergence in micropatterned spinal neuroepithelial tissues, with ROCK inhibition", "format": "cell-based, human", "settings": "for effect on ability to form neural rosettes: 10 μM ROCK inhibitor, 5 days, spinal neuroepithelial tissues, dihydrochloride", "description": "(§1) NEC biomechanical properties vary by regional phenotype and affect rosette emergence behavior: The inefficient induction of singular rosette emergence in spinal neuroepithelial tissues under micropatterning conditions that were highly efficient for forebrain NECs prompted a re-examination of the optimal circular micropattern size for each regional phenotype. Moreover, we investigated how altering the biomechanical properties of each regional neuroepithelial tissue, by partial inhibition of the Rho-associated protein kinase (ROCK), would affect which micropattern size induced optimal singular rosette emergence. D-1 hESCs and 72-hr caudalized NMPs were seeded at 100,000 and 250,000 cells/cm^2, respectively, onto 150 (0.018 mm^2), 180 (0.025 mm^2), 200 (0.031 mm^2), 250 (0.049 mm^2), and 400 μm (0.126 mm^2) diameter circular micropattern arrays to generate forebrain and spinal neuroepithelial tissues (FIGS. 6A-6B and 6D-6E). […] Similar to our previous results, the efficiency of singular neural rosette emergence for forebrain tissues peaked at 85% on 250 μm (0.049 mm^2) diameter circular micropatterns (FIG. 6C). However, in the presence vs. absence of ROCK inhibitor, the efficiency curve shifted leftward inducing singular rosette emergence in 75% vs. 0% of 150 μm (0.018 mm^2), 89% vs. 50% of 180 μm (0.025 mm^2), 87% vs. 58% of 200 μm (0.031 mm^2), and 11% vs. 85% of 250 μm (0.049 mm^2) diameter forebrain neuroepithelial tissues, respectively.\nGeneration of Micropatterned Spinal Cord Neuroepithelial Tissues: Caudalization of hPSC-derived cultures to generate micropatterned neuroepithelial tissues of the cervical/thoracic spinal cord was performed using a modified version of the deterministic HOX patterning protocol (36). Human PSCs were dissociated with Accutase and seeded onto MATRIGEL™-coated, 6-well TCPS plates at 150,000 cells/cm^2 in E8 media comprising 10 μM ROCK inhibitor. […]"}, "[2]": {"system": "forebrain neuroepithelial tissues", "test": "Singular neural rosette emergence in micropatterned forebrain neuroepithelial tissues, with ROCK inhibition", "format": "cell-based, human", "settings": "for singular rosette emergence efficiency: presence of 10 μM ROCK inhibitor, 5 days", "description": "as §1\nGeneration of Micropatterned Forebrain Neural Tissues: WA09 or HUES3 Hb9::GFP hESCs were maintained in Essential 8 medium (E8) on MATRIGEL™-coated TCPS plates and routinely passaged with Versene (Thermo Fisher). NEC derivation from hPSCs was performed in accordance with the E6 protocol (23). To generate NEC-derived micropatterned tissues at various stages of neural derivation, cells were first rinsed with PBS, dissociated with Accutase (Thermo Fisher) for 5 minutes at 37° C., and collected via centrifugation at 1000 rpm for 5 minutes. Singularized NECs were re-suspended in E6 media with 10 μM ROCK inhibitor (Y27632; R&D Systems) and seeded onto micropatterned substrates at 75,000 cells/cm^2 in 2 mL of media per well. The following day the media was replaced with 2 mL of E6 media and 50% media changes were performed daily thereafter. Alternatively, to generate hPSC-derived micropatterned tissues, hPSC cultures at ˜85% confluency were rinsed with PBS, dissociated with Accutase for 5 minutes at 37° C. and collected via centrifugation at 1000 rpm for 5 minutes. Singularized hPSCs were then suspended in E8 media with 10 μM ROCK inhibitor and seeded onto micropatterned substrates at 100,000 cells/cm^2 in 2 mL of media per well. The following day the media was replaced with 2 mL of E6 media and 50% media changes were performed daily thereafter.\nImmunocytochemistry and Microscopy: Micropatterned tissues were rinsed with PBS and fixed with 4% paraformaldehyde (PFA, Sigma Aldrich) in PBS for 10 minutes at room temperature. Following three rinses with phosphate buffered saline (PBS), the micropatterned substrates were blocked and permeabilized in PBS with 5% Donkey Serum and 0.3% Triton X-100 (TX100; Thermo Fisher) (PBS-DT) for 1 hour at room temperature. Next, the tissues were incubated with primary antibodies diluted in PBS-DT for 2 hours at room temperature or overnight at 4° C. Then, the substrates were rinsed in PBD-DT 3 times for 15 minutes each. Secondary antibodies were diluted in PBS-DT and exposed to the tissues for 1 hour at room temperature. Tissue nuclei were subsequently stained with 300 nM 4′,6-diamidino-2-phenylindoldihydrochloride (DAPI, Sigma Aldrich) for 30 minutes followed by three 15 minute PBS washes. The micropatterned substrates were mounted on glass coverslips using Prolong Gold Antifade Reagent (Thermo Fisher). […]"}}, "data": [{"molecule": "C[C@@H](N)[C@H]1CC[C@H](C(=O)Nc2ccncc2)CC1.Cl.Cl", "note": "[ROCK inhibitor, (+)-(R)-trans-4-(1-aminoethyl)-N-(4-pyridyl)cyclohexanecarboxamide dihydrochloride]", "values": [{"measurement": "effect on ability to form neural rosettes", "setting": "[1]", "value": "completely abolished their ability form neural rosettes"}, {"measurement": "effect on ability to form neural rosettes", "setting": "[1]; listed as Rock inhibitor", "value": "fully eliminate"}, {"measurement": "NEC density in presence vs. absence of ROCK inhibitor", "setting": "[1]; spinal tissues of a given micropattern size, 10 μM", "value": "did not vary significantly"}, {"measurement": "effect on rosette formation capacity", "setting": "[2]; 10 μM Rock inhibitor, forebrain NECs", "value": "only partially diminish"}, {"measurement": "NEC density in presence vs. absence of ROCK inhibitor", "setting": "[2]; forebrain tissues of a given micropattern size, 10 μM", "value": "did not vary significantly"}, {"measurement": "singular rosette emergence efficiency", "setting": "[2]; 150 μm (0.018 mm^2) diameter circular micropatterns", "value": 75, "unit": "%"}, {"measurement": "singular rosette emergence efficiency", "setting": "[2]; 180 μm (0.025 mm^2) diameter circular micropatterns", "value": 89, "unit": "%"}, {"measurement": "singular rosette emergence efficiency", "setting": "[2]; 200 μm (0.031 mm^2) diameter circular micropatterns", "value": 87, "unit": "%"}, {"measurement": "singular rosette emergence efficiency", "setting": "[2]; 250 μm (0.049 mm^2) diameter circular micropatterns", "value": 11, "unit": "%"}]}]}
